This is an account of results in US7541464B2, “7-azaindoles, pharmaceutical compositions and their therapeutic applications” (Sanofi-Aventis Deutschland GmbH, priority 2004, dated 2009).

Read-outs that look alike come from different tables or passages of the source.

One assay addresses T1, human PPARalpha (Homo sapiens, UniProt Q07869).
T1 construct: amino acids S167-Y468; expressed in transfected cells; plasmid pcDNA3
T1 sequence (Q07869 167-468): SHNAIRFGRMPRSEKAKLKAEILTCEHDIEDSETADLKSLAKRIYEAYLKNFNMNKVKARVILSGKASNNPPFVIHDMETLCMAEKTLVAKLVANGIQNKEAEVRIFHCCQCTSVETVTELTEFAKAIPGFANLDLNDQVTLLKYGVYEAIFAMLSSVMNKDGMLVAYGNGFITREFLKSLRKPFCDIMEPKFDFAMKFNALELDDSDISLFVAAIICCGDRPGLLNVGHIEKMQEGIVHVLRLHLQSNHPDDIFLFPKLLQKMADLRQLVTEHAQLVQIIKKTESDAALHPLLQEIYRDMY
Put plainly: Cellular PPARalpha assay (HEK luciferase reporter cell line). Format: cell-based. The following applies: PPARalpha reporter cell line (HEK, GR-GAL4-humanPPARalpha-LBD). The procedure: Determination of EC50 Values of PPAR Agonists In the Cellular PPARalpha Assay
The potency of substances which bind to human PPARalpha and activate it in an agonistic manner is analyzed using a stably transfected HEK cell line (HEK=human embryo kidney) which is referred to here as PPARalpha reporter cell line. It contains two genetic elements, a luciferase reporter element (pdeltaM-GAL4-Luc-Zeo) and a PPARalpha fusion protein (GR-GAL4-humanPPARalpha-LBD) which mediates expression of the luciferase reporter element depending on a PPARalpha ligand. The stably and constitutively expressed fusion protein GR-GAL4-humanPPARalpha-LBD binds in the cell nucleus of the PPARalpha reporter cell line via the GAL4 protein portion to the GAL4 DNA binding motifs 5′-upstream of the luciferase reporter element which is stably integrated in the genome of the cell line. There is only weak expression of the luciferase reporter gene in the absence of a PPARalpha ligand if fafty acid-depleted fetal calf serum (cs-FCS) is used in the assay. PPARalpha ligands bind and activate the PPARalpha fusion protein and thereby stimulate the expression of the luciferase reporter gene. The luciferase which is formed can be detected by means of chemiluminescence via an appropriate substrate. […]
The activity of PPARalpha agonists is determined in a 3-day assay which is described below: […]
(In a reporter assay the amount or activity of a reporter protein is the signal.)

The next assay has as its target T2, human PPARdelta (Homo sapiens, UniProt Q03181).
T2 construct: amino acids S139-Y441; expressed in transfected cells; plasmid pcDNA3
T2 sequence (Q03181 139-441): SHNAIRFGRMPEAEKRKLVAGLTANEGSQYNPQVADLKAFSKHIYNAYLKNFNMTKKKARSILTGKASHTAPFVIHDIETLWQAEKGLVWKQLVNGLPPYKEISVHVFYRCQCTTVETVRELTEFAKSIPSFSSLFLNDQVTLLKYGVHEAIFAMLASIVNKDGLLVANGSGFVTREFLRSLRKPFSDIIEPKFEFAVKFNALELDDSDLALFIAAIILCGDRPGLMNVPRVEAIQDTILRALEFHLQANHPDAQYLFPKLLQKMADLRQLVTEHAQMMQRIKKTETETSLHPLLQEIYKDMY
In words: Cellular PPARdelta assay (HEK luciferase reporter cell line). The assay is classed as cell-based. The settings on record: PPARdelta reporter cell line (HEK, GR-GAL4-humanPPARdelta-LBD). On the procedure:
The potency of substances which bind to human PPARdelta and activate it in an agonistic manner is analyzed using a stably transfected HEK cell line (HEK=human embryo kidney) which is referred to here as PPARdelta reporter cell line. In analogy to the assay described for PPARalpha, the PPARdelta reporter cell line also contains two genetic elements, a luciferase reporter element (pdeltaM-GAL4-Luc-Zeo) and a PPARdelta fusion protein (GR-GAL4-humanPPARdelta-LBD) which mediates expression of the luciferase reporter element depending on a PPARdelta ligand. The stably and constitutively expressed fusion protein GR-GAL4-humanPPARdelta-LBD binds in the cell nucleus of the PPARdelta reporter cell line via the GAL4 protein portion to the GAL4 DNA binding motifs 5′-upstream of the luciferase reporter element which is stably integrated in the genome of the cell line. […] The luciferase which is formed can be detected by means of chemiluminescence via an appropriate substrate. […]
The activity of PPARdelta agonists is determined in a 3-day assay in exact analogy to the procedure already described for the PPARalpha reporter cell line except that the PPARdelta reporter cell line and a specific PPARdelta agonist was used as a standard to control test efficacy.

Assay [1] relates to PPARdelta. The settings on record: diabetic animal model; cited from earlier work.
For assay [2], the system named is PPARdelta. The following applies: obese, insulin resistant rhesus monkeys; cited from earlier work.
In assay [3] the test system is PPARdelta/PPARalpha. The settings on record: rhesus and cynomolgus monkeys; cited from earlier work.
The test system of assay [4] is PPARdelta/PPARalpha. The settings on record: two weeks clinical trials in healthy volunteers; cited from earlier work.

What is called EC50 is the midpoint of the concentration-response curve. For `CCCCc1nc(-c2ccc(C(F)(F)F)cc2)sc1Cn1ccc2cc(OCC(=O)O)cnc21` [Example 1, {1-[4-Butyl-2-(4-trifluoromethyl-phenyl)-thiazol-5-ylmethyl]-1H-pyrrolo[2,3-b]pyridin-5-yloxy}-acetic acid], the EC50 is 40 nM at human PPARalpha and 470 nM on human PPARdelta.

Consider `CCCCc1nc(-c2ccc(C(F)(F)F)cc2)sc1Cn1ccc2c(CCC)c(OCC(=O)O)cnc21` [Example 2, {1-[4-Butyl-2-(4-trifluoromethyl-phenyl)-thiazol-5-ylmethyl]-4-propyl-1H-pyrrolo[2,3-b]pyridin-5-yloxy}-acetic acid], for which the values for the EC50 on human PPARalpha and at human PPARdelta were 320 nM and 140 nM, respectively.

For the molecule `CCCc1c(OCCCOc2ccc(OCC(=O)O)cc2)ccc(C(C)=O)c1O` [Example L-165041], in the assay on PPARdelta [1], the plasma cholesterol result is recorded as “raises plasma cholesterol”.

Turning to `Cc1cc(SCc2sc(-c3ccc(C(F)(F)F)cc3)nc2C)ccc1OCC(=O)O` [GW501516], in the assay with PPARdelta [2], the HDL-cholesterol entry is recorded as “raises”, the “plasma LDL-cholesterol” value was “decreases”, the plasma insulin levels result is on record as “decreases” and the plasma triglycerides result is recorded as “decreases”.

As for `CCCc1c(OCCCSc2nnc(SCC(=O)O)s2)ccc(C(C)=O)c1O` [YM-16638], the plasma lipids entry is recorded as “significantly lowers plasma lipids” with PPARdelta/PPARalpha [3] and “acts in a similar manner” in the assay with PPARdelta/PPARalpha [4].
